Consider 12 compounds from patent US20120172397A1, “HEXAHYDROCYCLOPENTA[f]INDAZOLE 5-YL ETHANOLS AND DERIVATIVES THEREOF AS SELECTIVE GLUCOCORTICOID RECEPTOR MODULATORS” (MERCK SHARP & DOHME CORP., priority 2009, published 2012).

The term Emax denotes the size of the effect at its maximum, as opposed to the concentration needed.

Test [1] concerns human GR (MMTV-LUC reporter gene, A549 cells). Put plainly: Trans-Activation Modulation of Glucocorticoid Receptor Assay (GRAMMER), MMTV-LUC reporter in A549 cells. Format: cell-based. The following applies: for EC50: MMTV-LUC reporter, agonist mode, read-out: Transactivation A549 Cells GRAMMER IP (inflection point); for Transactivation A549 Cells GRAMMER Emax / Emax: Emax relative to the activity obtained with 300 nM dexamethasone; for Emax: read-out: Transactivation A549 Cells GRAMMER Emax. From the text:
Trans-Activation Modulation of Glucocorticoid Receptor Assay
This assay assesses the ability of test compounds to control transcription from the MMTV-LUC reporter gene in lung adenocarcinoma A549 cells or HeLa cells, a human […] cell line that naturally expresses the human GR. The assay measures induction of a modified MMTV LTR/promoter linked to the LUC reporter gene.
The routine transient assay consists of plating 7,000-25,000 cells/well of a white, clear-bottom 96-well plate. Alternatively, 384-well plates can be used at a cell concentration of 10,000 /well. The media that the cells are plated in is “exponential growth medium” which consists of phenol red-free RPMI1640 containing 10%FBS, 4 mM L-glutamine, 20 mM HEPES, 10 μg/mL human insulin, and 20 μg/mL gentamicin. Incubator conditions are 37° C. and 5% CO2. The transfection is done in batch mode. The cells are trypsinized and counted to the right cell number in the proper amount of fresh media. It is then gently mixed with the FuGene6/DNA mix and plated onto the 96 or 384-well plate, all the wells receive 100 μL or 40 μL, respectively, of medium +lipid/DNA complex then incubated 37° C. overnight. The transfection cocktail consists of serum-free OptiMEM, FuGene6 reagent and DNA. The manufacturer's (Roche Biochemical) protocol for cocktail setup is as follows: The lipid to DNA ratio is approximately 2.5:1 and the incubation time is 20 min at room temperature. Sixteen to 24 hours after transfection, the cells are treated with dexamethasone to a final concentration of 10 nM as well as the compound of interest, such that final DMSO (vehicle) concentration is equal to or less than 1%. Each plate also contains samples that are treated with 10 nM dexamethasone alone, which is used as the 100% activity control. The cells are exposed to the compounds for 24 hours. After 24 hours, the cells are lysed by a Promega cell culture lysis buffer for approximately 30 min and then the luciferase activity in the extracts is assayed in the 96-well format luminometer. In 384-well format, Steady-Glo (Promega) or Steady-Lite (PerkinElmer) can be used by adding an equal volume of reagent to the media present in each well. Activity induced by 10 nM dexamethasone alone is set at 100% activity. Antagonist activity is calculated by determining the decrease in dexamethasone-induced activity in response to compound treatment relative to samples that were treated with dexamethasone alone. Results are expressed as % inhibition of 10 nM dexamethasone activity or as fold of 10 nM dexamethasone activity. This transactivation assay can be performed in an agonist and antagonist mode to identify these different activities.
Activity of test compounds is calculated as the Emax relative to the activity obtained with 300 nM dexamethasone. Activity of test compounds is calculated as the Emax relative to the activity obtained with 300 nM DEX. The exemplified tissue selective glucocorticoid receptor modulators of the present invention display agonist activity in this assay of greater than 5% and less than 100%, and maximal transactivation activity less then maximal transrepression activity. […]

Test [2] concerns human GR (TNFα promoter β-lactamase reporter, U937 cells). Put plainly: Transrepression Assay (GITAR), TNFα-β-lactamase reporter in U937 cells. The format is cell-based. The settings on record: for EC50: TNFα-β-lactamase reporter, PMA/LPS stimulated, read-out: Transrepression U937 Cells GITAR IP (inflection point); for Transrepression U937 Cells GITAR Emax / Emax: activity repressed by 100 nM dexamethasone set as 100%. From the text: This assay assesses the ability of test compounds to control transcription from the TNFα-β-lactamase reporter gene in U937 cells, a human myelomonocytic leukemia cell line that naturally expresses the human GR. The assay measures compound dependent-repression of the TNFa promoter linked to a reporter gene.
The human U937cells that had been stablely transfected with the TNF-α promoter driving β-lactamase are used for this assay. U937 cells contain an endogenous glucocorticoid receptor (GR). Cells are maintained in RPMI 1640 Growth medium (Gibco Cat#11875-093) containing 25 mM HEPES, 10% FBS, 2 mM L-Glutamine, 1 mM Sodium pyruvate, 25 μg/ml Gentamicin (Gibco Cat#15710-064), 1:1000 2-Mercaptoethanol (Gibco Cat#21985-023) and 0.8 mg/ml G418 (Gibco Cat#10131-027). The density of the cells in the flask needs to be about 1×106−3×10^6/ml at the time of harvest. Usually, the cells are split to 1.2˜1.4×10^5/ml (1:10) 3 days prior to the assay. 50,000 cells/well are plated in 96 well black-walled plates the day of assay. Test compounds are added 10 μL/well, and cells are incubated at 37° C. for 30-45 min. For assaying compounds, first dilute 1:10 in DMSO to make 1 mM, then further dilute 1:100 in medium to make 10 × stock prior to adding to the cells. Add 50 ng/ml PMA (Sigma, cat# P8139) 10 μL/well to a final concentration 5 ng/ml, and 1 μg/ml LPS (Sigma, cat# L4130) 10 μL/well to a final concentration 100 ng/ml. Incubate cells at […] overnight for˜18 hr. PMA is stored frozen as 100 μg/ml stock in DMSO. Dilute 1:10 in DMSO for a working stock of 10 μg/ml and store at −20° C. For assaying, dilute the 10 μg/ml working stock 1:200 in medium to make a 10× solution (50 ng/ml). Store frozen LPS at 1 mg/ml in PBS, dilute 1:1000 in medium to make 10× (1 μg/ml) for the assay. Add 6× loading buffer (CCF2-AM) 20 μL/well, and incubate at room temperature for 70˜90 min. […] The activity repressed by 100 nM dexamethasone alone is set as 100% activity.

Setting [3] is: Homo sapiens, U-937, U937 cells.

Molecules are shown by their SMILES. Like-named read-outs stand apart in the source and are kept apart here.

Turning to `C[C@]12Cc3cnn(-c4cccnc4)c3C=C1CC[C@@H]2CC(O)c1ccccc1` (single isomer, unassigned) [Example 1a], in test [1] (A549 cells), the EC50 is 343 nM and the “Transactivation A549 Cells GRAMMER Emax” value turned out to be 29.7%. Further, in test [2] (U937 cells), the EC50 came out at 277 nM and the “Transrepression U937 Cells GITAR Emax” value is recorded as 75.4%.
For `C[C@]12Cc3cnn(-c4cccnc4)c3C=C1CC[C@@H]2CC(O)c1ccccc1` (single isomer, unassigned) [Example 1b], in that order: 811 nM, 8.5%, 1720 nM and 49.3%.
In the same order, the values of `COc1ccccc1C(O)C[C@H]1CCC2=Cc3c(cnn3-c3cccnc3)C[C@@]21C` (single isomer, unassigned) [Example 2a] are 301 nM, 68.5%, 229 nM and 79.5%.
As for `COc1ccccc1C(O)C[C@H]1CCC2=Cc3c(cnn3-c3cccnc3)C[C@@]21C` (single isomer, unassigned) [Example 2b], in test [1] (A549 cells), the EC50 came out at 812 nM and the “Transactivation A549 Cells GRAMMER Emax” value worked out at 21.5%. Moreover, the Emax in test [2] (setting [3]) was 73.9%. In addition, the EC50 in test [2] (U937 cells) was found to be 1160 nM.
With `COc1cccc(C(O)C[C@H]2CCC3=Cc4c(cnn4-c4cccnc4)C[C@@]32C)c1` (single isomer, unassigned) [Example 4a], in test [1] (A549 cells), the “Transactivation A549 Cells GRAMMER Emax” value was 47.7%. For the same compound, the EC50 in test [1] (Homo sapiens, A549, A549 cells) was 472 nM; in test [2] (U937 cells), 114 nM. The “Transrepression U937 Cells GITAR Emax” value in test [2] (U937 cells) is recorded as 74.8%.
Consider `COc1cccc(C(O)C[C@H]2CCC3=Cc4c(cnn4-c4cccnc4)C[C@@]32C)c1` (single isomer, unassigned) [Example 4b], for which, in test [1] (A549 cells), the EC50 came out at 797 nM and the “Transactivation A549 Cells GRAMMER Emax” value is recorded as 15.3%. For the same compound, in test [2] (U937 cells), the EC50 was 548 nM and the “Transrepression U937 Cells GITAR Emax” value was determined as 47.0%.
As for `C[C@]12Cc3cnn(-c4cccnc4)c3C=C1CC[C@@H]2CC(O)c1ccccn1` (single isomer, unassigned) [Example 6a], the EC50 is 1170 nM in test [1] (Homo sapiens, A549, A549 cells) and 558 nM in test [2] (U937 cells). Moreover, the Emax in test [1] (Homo sapiens, A549, A549 cells) was found to be 1.6%; in test [2] (setting [3]), 16.6%.
On to `C[C@]12Cc3cnn(-c4cccnc4)c3C=C1CC[C@@H]2CC(O)c1ccccn1` (single isomer, unassigned) [Example 6b], for which, in test [1] (A549 cells), the EC50 was determined as 1430 nM and the “Transactivation A549 Cells GRAMMER Emax” value came out at 2.2%. In test [2] (U937 cells), the EC50 amounted to 1380 nM and the “Transrepression U937 Cells GITAR Emax” value stood at 30.0%.
Take `CC(O)(C[C@H]1CCC2=Cc3c(cnn3-c3cccnc3)C[C@@]21C)c1ccccc1` (single isomer, unassigned) [Example 7a]: the EC50 in test [1] (A549 cells) was found to be 74.3 nM; in test [2] (U937 cells), 78.7 nM. For the same compound, in test [1] (A549 cells), the “Transactivation A549 Cells GRAMMER Emax” value came out at 53.1%. Further, in test [2] (setting [3]), the Emax was determined as 84.2%.
On to `CC(O)(C[C@H]1CCC2=Cc3c(cnn3-c3cccnc3)C[C@@]21C)c1ccccc1` (single isomer, unassigned) [Example 7b], for which, in test [1] (A549 cells), the EC50 turned out to be 316 nM and the “Transactivation A549 Cells GRAMMER Emax” value came out at 20.0%. Further, in test [2] (U937 cells), the EC50 was found to be 393 nM and the “Transrepression U937 Cells GITAR Emax” value came to 65.9%.
Take `COc1ccc(C(O)C[C@H]2CCC3=Cc4c(cnn4-c4cccnc4)C[C@@]32C)cn1` (stereo partly drawn) [Example 3, 1-(6-methoxypyridin-3-yl)-2-[(4αR,5R)-4α-methyl-1-(pyridin-3-yl)-1,4,4α,5,6,7-hexahydrocyclopenta[f]indazol-5-yl] ethanol]: the EC50 was determined as 160 nM in test [1] (Homo sapiens, A549, A549 cells) and 200 nM in test [2] (setting [3]). Also, the Emax was found to be 101% in test [1] (Homo sapiens, A549, A549 cells) and 85.2% in test [2] (setting [3]).
Turning to `COc1ccc(C(O)C[C@H]2CCC3=Cc4c(cnn4-c4cccnc4)C[C@@]32C)cc1` (stereo partly drawn) [Example 5, 1-(4-methoxyphenyl)-2-[(4αR,5R)-4α-methyl-1-(pyridin-3-yl)-1,4,4α,5,6,7-hexahydrocyclopenta[f]indazol-5-yl] ethanol], in test [1] (Homo sapiens, A549, A549 cells), the EC50 amounted to 53.4 nM and the Emax came to 90.7%. Also, in test [2] (setting [3]), the EC50 was found to be 20.7 nM and the Emax was 87.3%.
